# Source: PubChem BioAssay (NCI)
#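 Compound exposure: 48 hours, 5 concentrations, 96-well plates. GI50 is the concentration that inhibits growth by half. TGI marks complete inhibition of growth.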
# How the values were obtained:
# Assay in all cases: NCI tumour cell line growth inhibition, 48 h
# M14 melanoma = tested on: M14 melanoma
# SR leukemia = tested on: SR leukemia
# A549 NSCLC = tested on: A549 NSCLC
# MOLT-4 leukemia = tested on: MOLT-4 leukemia
# RXF 393 renal = tested on: RXF 393 renal
# DU-145 prostate = tested on: DU-145 prostate
# UO-31 renal = tested on: UO-31 renal
# SNB-19 CNS = tested on: SNB-19 CNS
# UACC-257 melanoma = tested on: UACC-257 melanoma
# NCI-H460 lung = tested on: NCI-H460 lung
# HL-60(TB) leukemia = tested on: HL-60(TB) leukemia
# RPMI-8226 leukemia = tested on: RPMI-8226 leukemia
# MALME-3M melanoma = tested on: MALME-3M melanoma
# HCT-116 colon = tested on: HCT-116 colon
# MCF7 breast = tested on: MCF7 breast
# CAKI-1 renal = tested on: CAKI-1 renal
# SK-OV-3 ovarian = tested on: SK-OV-3 ovarian
# OVCAR-5 ovarian = tested on: OVCAR-5 ovarian
# UACC-62 melanoma = tested on: UACC-62 melanoma
# HOP-92 NSCLC = tested on: HOP-92 NSCLC
# PC-3 prostate = tested on: PC-3 prostate
# NCI-H522 lung = tested on: NCI-H522 lung
# EKVX NSCLC = tested on: EKVX NSCLC
# ACHN renal = tested on: ACHN renal
# SK-MEL-5 melanoma = tested on: SK-MEL-5 melanoma
# SK-MEL-2 melanoma = tested on: SK-MEL-2 melanoma
# NCI-H226 lung = tested on: NCI-H226 lung
# SF-268 CNS = tested on: SF-268 CNS
smiles,measurement,setting,value
COc1ccc(N=N/C(=N\NC(=O)c2cc(Br)ccc2O)c2ccc(N(CCC#N)CCC#N)cc2OC)cc1,GI50,M14 melanoma,83.7 µg/mL
same,TGI,M14 melanoma,> 150 µg/mL
same,GI50,SR leukemia,62.8 µg/mL
same,TGI,SR leukemia,> 150 µg/mL
same,GI50,A549 NSCLC,77.1 µg/mL
same,TGI,A549 NSCLC,> 150 µg/mL
same,GI50,MOLT-4 leukemia,52 µg/mL
same,TGI,MOLT-4 leukemia,> 150 µg/mL
same,GI50,RXF 393 renal,50.2 µg/mL
same,TGI,RXF 393 renal,> 150 µg/mL
same,GI50,DU-145 prostate,82 µg/mL
same,TGI,DU-145 prostate,> 150 µg/mL
same,GI50,UO-31 renal,59.5 µg/mL
same,TGI,UO-31 renal,> 150 µg/mL
same,GI50,SNB-19 CNS,> 150 µg/mL
same,TGI,SNB-19 CNS,> 150 µg/mL
same,GI50,UACC-257 melanoma,> 150 µg/mL
same,TGI,UACC-257 melanoma,> 150 µg/mL
same,GI50,NCI-H460 lung,33.5 µg/mL
same,TGI,NCI-H460 lung,109 µg/mL
same,GI50,HL-60(TB) leukemia,56.7 µg/mL
same,TGI,HL-60(TB) leukemia,> 150 µg/mL
same,GI50,RPMI-8226 leukemia,74.4 µg/mL
same,TGI,RPMI-8226 leukemia,> 150 µg/mL
same,GI50,MALME-3M melanoma,68.2 µg/mL
same,TGI,MALME-3M melanoma,> 150 µg/mL
same,GI50,HCT-116 colon,60.6 µg/mL
same,TGI,HCT-116 colon,> 150 µg/mL
same,GI50,MCF7 breast,58.7 µg/mL
same,TGI,MCF7 breast,> 150 µg/mL
same,GI50,CAKI-1 renal,53.3 µg/mL
same,TGI,CAKI-1 renal,> 150 µg/mL
same,GI50,SK-OV-3 ovarian,80.6 µg/mL
same,TGI,SK-OV-3 ovarian,> 150 µg/mL
same,GI50,OVCAR-5 ovarian,108 µg/mL
same,TGI,OVCAR-5 ovarian,> 150 µg/mL
same,GI50,UACC-62 melanoma,94.2 µg/mL
same,TGI,UACC-62 melanoma,> 150 µg/mL
same,GI50,HOP-92 NSCLC,81.9 µg/mL
same,TGI,HOP-92 NSCLC,> 150 µg/mL
same,GI50,PC-3 prostate,57.6 µg/mL
same,TGI,PC-3 prostate,> 150 µg/mL
same,GI50,NCI-H522 lung,40.1 µg/mL
same,TGI,NCI-H522 lung,141 µg/mL
same,GI50,EKVX NSCLC,> 150 µg/mL
same,TGI,EKVX NSCLC,> 150 µg/mL
same,GI50,ACHN renal,85.7 µg/mL
same,TGI,ACHN renal,> 150 µg/mL
same,GI50,SK-MEL-5 melanoma,56.1 µg/mL
same,TGI,SK-MEL-5 melanoma,> 150 µg/mL
same,GI50,SK-MEL-2 melanoma,95.8 µg/mL
same,TGI,SK-MEL-2 melanoma,> 150 µg/mL
same,GI50,NCI-H226 lung,24.2 µg/mL
same,TGI,NCI-H226 lung,88.1 µg/mL
same,GI50,SF-268 CNS,30.1 µg/mL
same,TGI,SF-268 CNS,> 150 µg/mL
